Measurements reported in ChEMBL document CHEMBL5724914, “Linking interpersonal differences in gut microbiota composition and drug biotransformation activity” (2024).

Key:
[1] = The drug is tested on Z-030 corresponding to mouse gut metagenome with ENA study accession number: PRJEB37062 and ENA sample accession number: ERS12561829 for biotransformation under anaerobic condition. The drug concentrations were measured over 9 timepoints collected between 0 and 24 hours of incubation by liquid-chromatography-coupled mass spectrometry (LC–MS); details: 2 µM
[2] = The drug is tested on Z-027 corresponding to metagenome with ENA study accession number: PRJEB37062 and ENA sample accession number: ERS12561826 for biotransformation under anaerobic condition. The drug concentrations were measured over 9 timepoints collected between 0 and 24 hours of incubation by liquid-chromatography-coupled mass spectrometry (LC–MS); details: 2 µM
[3] = The drug is tested on Z-020 corresponding to rabbit gut metagenome with ENA study accession number: PRJEB37062 and ENA sample accession number: ERS12561819 for biotransformation under anaerobic condition. The drug concentrations were measured over 9 timepoints collected between 0 and 24 hours of incubation by liquid-chromatography-coupled mass spectrometry (LC–MS); details: 2 µM
[4] = The drug is tested on Z-019 corresponding to rat gut metagenome with ENA study accession number: PRJEB37062 and ENA sample accession number: ERS12561818 for biotransformation under anaerobic condition. The drug concentrations were measured over 9 timepoints collected between 0 and 24 hours of incubation by liquid-chromatography-coupled mass spectrometry (LC–MS); details: 2 µM
[5] = The drug is tested on Z-007 corresponding to rat gut metagenome with ENA study accession number: PRJEB37062 and ENA sample accession number: ERS12561807 for biotransformation under anaerobic condition. The drug concentrations were measured over 9 timepoints collected between 0 and 24 hours of incubation by liquid-chromatography-coupled mass spectrometry (LC–MS); details: 2 µM
[6] = The drug is tested on Z-005 corresponding to metagenome with ENA study accession number: PRJEB37062 and ENA sample accession number: ERS12561805 for biotransformation under anaerobic condition. The drug concentrations were measured over 9 timepoints collected between 0 and 24 hours of incubation by liquid-chromatography-coupled mass spectrometry (LC–MS); details: 2 µM
[7] = The drug is tested on Z-002 corresponding to rabbit gut metagenome with ENA study accession number: PRJEB37062 and ENA sample accession number: ERS12561802 for biotransformation under anaerobic condition. The drug concentrations were measured over 9 timepoints collected between 0 and 24 hours of incubation by liquid-chromatography-coupled mass spectrometry (LC–MS); details: 2 µM
[8] = The drug is tested on Z-001 corresponding to mouse gut metagenome with ENA study accession number: PRJEB37062 and ENA sample accession number: ERS12561801 for biotransformation under anaerobic condition. The drug concentrations were measured over 9 timepoints collected between 0 and 24 hours of incubation by liquid-chromatography-coupled mass spectrometry (LC–MS); details: 2 µM
[9] = The drug is tested on WLS-098 corresponding to human gut metagenome with ENA study accession number: PRJEB37062 and ENA sample accession number: ERS12561754 for biotransformation under anaerobic condition. The drug concentrations were measured over 9 timepoints collected between 0 and 24 hours of incubation by liquid-chromatography-coupled mass spectrometry (LC–MS); details: 2 µM
[10] = The drug is tested on WLS-073 corresponding to human gut metagenome with ENA study accession number: PRJEB37062 and ENA sample accession number: ERS12561749 for biotransformation under anaerobic condition. The drug concentrations were measured over 9 timepoints collected between 0 and 24 hours of incubation by liquid-chromatography-coupled mass spectrometry (LC–MS); details: 2 µM
[11] = The drug is tested on WLS-069 corresponding to human gut metagenome with ENA study accession number: PRJEB37062 and ENA sample accession number: ERS12561748 for biotransformation under anaerobic condition. The drug concentrations were measured over 9 timepoints collected between 0 and 24 hours of incubation by liquid-chromatography-coupled mass spectrometry (LC–MS); details: 2 µM
[12] = The drug is tested on WLS-007 corresponding to human gut metagenome with ENA study accession number: PRJEB37062 and ENA sample accession number: ERS12561742 for biotransformation under anaerobic condition. The drug concentrations were measured over 9 timepoints collected between 0 and 24 hours of incubation by liquid-chromatography-coupled mass spectrometry (LC–MS); details: 2 µM
[13] = human gut metagenome, 24 h, 2 µM
[14] = human gut metagenome, 24 h, 2 µM; remark: listed apart in the source
[15] = human gut metagenome, 24 h, 2 µM; remark: listed apart in the source
[16] = human gut metagenome, 24 h, 2 µM; remark: listed apart in the source
[17] = human gut metagenome, 24 h, 2 µM; remark: listed apart in the source
[18] = human gut metagenome, 24 h, 2 µM; remark: listed apart in the source
[19] = human gut metagenome, 24 h, 2 µM; remark: listed apart in the source
[20] = human gut metagenome, 24 h, 2 µM; remark: listed apart in the source

Measured: Bacterial Biotransformation
Note: call rule not given here.

CC(C)NCC(O)c1ccc(NS(C)(=O)=O)cc1 (stereo not given) [SOTALOL]
Compound NOT metabolized: all assays above

CCN1CCCC1CNC(=O)c1cc(S(N)(=O)=O)ccc1OC (stereo not given) [SULPIRIDE]
Compound metabolized: [7] | [8] | [9] | [11] | [15] | [16] | [17] | [18] | [20]
Compound NOT metabolized: all other assays above

CNS(=O)(=O)Cc1ccc2[nH]cc(CCN(C)C)c2c1.O=C(O)CCC(=O)O [SUMATRIPTAN SUCCINATE]
Compound metabolized: [7] | [8] | [9] | [11] | [15] | [16] | [18]
Compound NOT metabolized: all other assays above

Nc1c2c(nc3ccccc13)CCCC2 [TACRINE]
Compound metabolized: [7] | [9] | [11] | [15] | [18] | [20]
Compound NOT metabolized: all other assays above

Cc1ccc(S(=O)(=O)NC(=O)NN2CCCCCC2)cc1 [TOLAZAMIDE]
Compound NOT metabolized: [1] | [2] | [3] | [4] | [5] | [14] | [19]
Compound metabolized: all other assays above
